Test results taken from ChEMBL document CHEMBL1201862, “PubChem BioAssay data set” (2004).
Active and inactive are the calls of the source.

Experiments:
[1] = target: Cytochrome P450 2C9 (Homo sapiens, UniProt P11712)
[2] = viability of uninfected HEp-2 cells – cell-based, HTS, cytotoxicity control for RSV inhibitor project, dose response (AID 2410); assay type: functional; conditions: human respiratory syncytial virus
[3] = P. falciparum Dd2 growth inhibitors, dose response, SYBR Green, cherry-picked samples (AID 1159567); assay type: functional, cell-based
[4] = Trypanosoma cruzi growth suppression in host cells – NIH3T3 host cells, beta-gal luminescence, confirmation (AID 2044); assay type: functional, cell-based;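 further: intracellular parasites grown in NIH/3T3 mouse fibroblasts as host cells; luminescent beta-galactosidase reporter signal from transgenic T. cruzi replicating inside host cells; inhibitors lower the luminescence signal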
[5] = NIH3T3 cell viability loss – ATP luminescence, mouse fibroblasts, counter-screen, dose response (AID 2010); assay type: functional, cell-based;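 further: cells exposed to compound for about 90 hours before reading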
[6] = target: T1, Rac GTPase-activating protein 1 (Homo sapiens, UniProt Q9H0H5); assay: blockers of MgcRacGAP-driven Rac1 GTP hydrolysis – biochemical, ADP Hunter fluorescence, primary and confirmatory, confirmation (AID 624330); assay type: functional
T1 sequence (Q9H0H5 whole entry): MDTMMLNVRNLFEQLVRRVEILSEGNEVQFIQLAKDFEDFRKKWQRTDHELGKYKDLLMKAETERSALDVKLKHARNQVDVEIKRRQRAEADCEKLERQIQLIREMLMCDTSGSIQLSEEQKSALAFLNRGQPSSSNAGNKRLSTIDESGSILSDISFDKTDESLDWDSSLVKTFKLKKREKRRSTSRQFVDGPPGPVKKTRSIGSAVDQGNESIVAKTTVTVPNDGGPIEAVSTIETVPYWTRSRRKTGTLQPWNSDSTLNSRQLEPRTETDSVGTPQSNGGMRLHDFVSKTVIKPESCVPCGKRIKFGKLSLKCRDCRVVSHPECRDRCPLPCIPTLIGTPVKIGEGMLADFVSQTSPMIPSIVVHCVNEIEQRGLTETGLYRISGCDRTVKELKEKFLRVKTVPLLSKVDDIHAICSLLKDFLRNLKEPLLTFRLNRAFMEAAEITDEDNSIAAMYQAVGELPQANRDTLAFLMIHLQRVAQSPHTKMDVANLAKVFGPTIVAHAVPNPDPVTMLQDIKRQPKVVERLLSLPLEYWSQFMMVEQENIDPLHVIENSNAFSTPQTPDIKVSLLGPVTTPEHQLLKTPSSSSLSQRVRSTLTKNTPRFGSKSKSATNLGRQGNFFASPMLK

[7] = Luminescence Cell-Based Dose Response HTS to Identify Activators of Luciferase Translation or Activity in H4 […] Cells. [Related pubchem assays: 1829 (Project Summary), 1814 (Primary HTS)]; assay type: functional
[8] = test system: H4; assay: Luminescence Cell-Based Dose Response HTS to Identify Activators of 5'UTR Stem-Loop Driven Prion Protein mRNA Translation in H4 Neuroglioblastoma Cells. [Related pubchem assays: 1829 (Project Summary), 1814 (Primary HTS)]; assay type: functional; conditions: Homo sapiens
[9] = target: T2, Corticotropin-releasing factor receptor 2/Corticotropin-releasing factor-binding protein (Homo sapiens, UniProt P24387+Q13324); assay: Dose Response confirmation of uHTS hits for small molecule antagonists of the CRF-binding protein and CRF-R2 receptor complex.; assay type: functional; conditions: read-out: IC50_Mean
T2 sequence (Q13324 whole entry): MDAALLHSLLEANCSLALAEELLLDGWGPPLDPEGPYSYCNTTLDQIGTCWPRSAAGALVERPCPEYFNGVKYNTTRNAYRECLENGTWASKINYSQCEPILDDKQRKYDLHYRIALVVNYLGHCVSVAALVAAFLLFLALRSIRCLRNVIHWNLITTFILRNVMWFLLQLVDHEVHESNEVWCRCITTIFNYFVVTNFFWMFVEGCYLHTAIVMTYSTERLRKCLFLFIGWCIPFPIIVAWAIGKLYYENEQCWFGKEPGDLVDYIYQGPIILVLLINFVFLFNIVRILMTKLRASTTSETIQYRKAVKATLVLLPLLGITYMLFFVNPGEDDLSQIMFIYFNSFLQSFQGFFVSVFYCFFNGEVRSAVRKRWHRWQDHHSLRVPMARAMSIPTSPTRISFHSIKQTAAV
T2 sequence (P24387 whole entry): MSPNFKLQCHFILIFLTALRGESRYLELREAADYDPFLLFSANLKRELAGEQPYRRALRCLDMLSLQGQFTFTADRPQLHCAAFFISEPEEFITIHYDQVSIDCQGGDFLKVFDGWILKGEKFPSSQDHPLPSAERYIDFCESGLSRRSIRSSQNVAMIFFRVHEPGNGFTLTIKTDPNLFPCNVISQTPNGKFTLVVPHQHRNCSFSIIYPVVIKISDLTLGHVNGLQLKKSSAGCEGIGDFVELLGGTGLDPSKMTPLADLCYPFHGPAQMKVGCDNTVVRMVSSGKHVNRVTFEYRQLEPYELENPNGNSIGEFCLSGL

[10] = target: T2, Corticotropin-releasing factor receptor 2/Corticotropin-releasing factor-binding protein; assay: activators of CRF receptor 2 with binding protein – uHTS hits, confirmation (AID 602473); assay type: functional; conditions: read-out: EC50_Mean
[11] = reduction of Shn3 3'UTR-driven luciferase in osteoblasts – cell-based, Clone20 osteoblasts, firefly luciferase, cherry-picked, dose response (AID 624132); assay type: functional;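 further: firefly luciferase luminescence from reporter carrying the Shn3 3'UTR in osteoblasts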

Cytochrome P450 2C9, sequence (P11712 whole entry): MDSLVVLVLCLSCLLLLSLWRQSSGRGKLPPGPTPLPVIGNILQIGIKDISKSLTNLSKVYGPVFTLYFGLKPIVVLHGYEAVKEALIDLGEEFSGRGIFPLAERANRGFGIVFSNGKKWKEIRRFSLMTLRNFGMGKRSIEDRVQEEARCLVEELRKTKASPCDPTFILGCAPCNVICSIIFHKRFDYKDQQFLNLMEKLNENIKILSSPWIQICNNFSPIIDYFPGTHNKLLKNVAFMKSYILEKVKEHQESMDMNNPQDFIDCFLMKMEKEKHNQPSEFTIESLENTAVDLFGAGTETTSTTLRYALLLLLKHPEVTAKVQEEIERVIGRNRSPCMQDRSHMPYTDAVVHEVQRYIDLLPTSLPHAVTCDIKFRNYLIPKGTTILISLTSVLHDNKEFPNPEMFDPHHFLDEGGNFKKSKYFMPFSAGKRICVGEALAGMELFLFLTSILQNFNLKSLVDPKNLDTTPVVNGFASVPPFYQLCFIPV

In the case of `O=S(=O)(c1ccccc1)N1CCC[C@@]2(CCN(c3ccccc3)C2)C1`, the AC50 [1] is reported as 2.51 µM (inconclusive).
In the case of `COC(=O)c1sccc1-c1ccc(C(N)=O)o1`, the CC50 [2] is reported as 44 µM (active).
For `c1cncc(-c2nn3c(Cn4nnc5ccccc54)nnc3s2)c1`, the CC50 [2] was > 50 µM (active).
In the case of `CCCCNC(=O)CSc1nc2ccccc2c(=O)n1CCNC(C)=O`, the AC50 [1] is reported as 22.4 µM (inconclusive).
In the case of `O=C(C1CCCC1)N1CC(=O)N2[C@H](C1)[C@@H](c1ccc(C#CCc3ccccc3)cc1)[C@@H]2CO`, the AC50 [3] is reported as 4.51 µM (active).
For `COCC(=O)Nc1ccc2c(c1)C(=O)N(C)C[C@H](OC)[C@H](C)CN(Cc1cccc(F)c1)[C@@H](C)CO2`, the AC50 [3] was 5.34 µM (active).
In the case of `CCN1CCN(CCOc2cccc(Cl)c2Cl)CC1`, the EC50 [4] is reported as 0.151 µM (active), the EC50 [5] is reported as > 60 µM (not active) and the IC50 [6] is reported as 70.4 µM (active).
In the case of `c1ccc(CNC2=NN=C(c3ccccc3)CS2)cc1`, the EC50 [7] is reported as 0.293 µM (active) and the EC50 [8] is reported as 24.2 µM (active).
With `CC(C)(C)[S@@+]([O-])N1Cc2cc(C(=O)N[C@@H]3CCN(Cc4ccccc4)C3)nc(-c3cccc(-c4ccncc4)c3)c2[C@H]1CCO` the AC50 [3] was 6.63 µM (active).
For `O=C(Nc1ccccc1)c1sccc1Oc1ccc([N+](=O)[O-])cc1F`, the EC50 [4] was 1.42 µM (active), the EC50 [5] was > 60 µM (not active) and the IC50 [9] was > 47.1 µM (inactive). The EC50 [10] was > 53 µM (inactive).
In the case of `COc1ccc(S(=O)(=O)N2CCC(N3CCN(c4ccccc4OC)CC3)CC2)cc1`, the IC50 [6] is reported as 121 µM (active).
For `CCC/C(=N\NC(=O)C1CC1)c1ccccc1`, the IC50 [9] was > 47.1 µM (inactive) and the EC50 [10] was > 53 µM (inactive).
In the case of `Cc1cc(OCCCN2CCN(Cc3ccccc3)CC2)ccc1[N+](=O)[O-]`, the EC50 [4] is reported as 0.156 µM (active), the EC50 [5] is reported as > 60 µM (inconclusive) and the IC50 [6] is reported as 62 µM (active).
For `CCc1cc(-c2[nH]nc(CCC(=O)O)c2-c2nc3ccccc3n2C)c(O)cc1O`, the IC50 [6] was 122 µM (active).
For `CCC(C)C1N=C(c2ccccc2)c2cc(Cl)ccc2N(CC(=O)NCc2ccco2)C1=O` (stereo not drawn), the IC50 [9] was > 47.1 µM (inactive) and the EC50 [10] was > 53 µM (inactive).
In the case of `O=C(c1ccc(NS(=O)(=O)c2cccc([N+](=O)[O-])c2)cc1)N1CCCCCC1`, the IC50 [9] is reported as > 47.1 µM (inactive) and the EC50 [10] is reported as > 53 µM (inactive).
With `O=C(Nc1nc(-c2ccc(Cl)cc2)cs1)NC1CCCCC1` the CC50 [2] was 20.3 µM (active).
With `CCn1c(=O)n(CC)c2cc(N3CCCC3)c(NC(=O)c3ccccc3)cc21` the IC50 [6] was 91 µM (active).
For `N#C/C(=C(/O)COC(=O)COc1cccc(Br)c1)c1nc2ccccc2[nH]1`, the IC50 [9] was > 47.1 µM (inactive) and the EC50 [10] was > 53 µM (inactive).
With `Cc1ccnc(NC(=O)c2ccc(NC(=O)c3ccco3)cc2)c1` the EC50 [7] was 1.37 µM (active) and the EC50 [8] was 11.9 µM (active).
With `COc1ccc(N2C(=O)CC(Sc3nc(C)cc(C)c3C#N)C2=O)cc1` (stereo not drawn) the EC50 [7] was 14.6 µM (active) and the EC50 [8] was 25.4 µM (active).
In the case of `COc1ccc(CN(C(=O)CSc2nnc(-c3ccc(F)cc3)o2)c2ccc(F)cc2)cc1`, the AC50 [11] is reported as 43.4 µM (active).
With `O=C(O)Cn1cc(/C=C2\C(=O)NC(=O)N(c3ccc(Cl)cc3)C2=O)c2ccccc21` the IC50 [6] was 255 µM (active).
In the case of `COc1cccc(CN2CCN(Cc3cc(OC)c(OC)c(OC)c3)CC2)c1OC`, the IC50 [6] is reported as 74.8 µM (active).
With `c1cc(CN2CCN(C3CCCCCC3)CC2)ccn1` the IC50 [6] was 92 µM (active).
With `CCOc1nc(C)ccc1-c1noc(-c2ccccn2)n1` the IC50 [9] was > 47.1 µM (inactive) and the EC50 [10] was > 53 µM (inactive).
With `C=CCOc1nc2c(c(=O)n(Cc3ccc(Cl)c(Cl)c3)c(=O)n2C)n1C` the IC50 [9] was > 47.1 µM (inactive) and the EC50 [10] was > 53 µM (inactive).
In the case of `Cc1ccc(C2(C)NC(=O)N(CC(=O)Nc3ccc(-c4nc5ccc(C)cc5s4)cc3)C2=O)cc1` (stereo not drawn), the CC50 [2] is reported as 41.5 µM (active).
For `CCCN1Cc2cccc(C(=O)NCc3cccs3)c2C1=O`, the IC50 [9] was > 47.1 µM (inactive) and the EC50 [10] was > 53 µM (inactive).
With `CC(=O)Nc1ccc(OCC[n+]2cccc(C(N)=O)c2)cc1` the IC50 [9] was > 47.1 µM (inactive) and the EC50 [10] was > 53 µM (inactive).
